Test results taken from patent US11090304B2 (Amgen Inc., priority 2018, dated 2021).

Molecular target: GDP-bound KRAS protein (aa 1-169), containing both G12C and C118A amino acid substitutions (Homo sapiens, UniProt P01116, C118A/G12C)
Test: Coupled nucleotide exchange assay (SOS-mediated, AlphaScreen)
Format: biochemical
Conditions: 5 min compound pre-incubation

Chain of GDP-bound KRAS protein (aa 1-169), containing both G12C and C118A amino acid substitutions (P01116 1-169 isoform P01116-2 G12C/C118A): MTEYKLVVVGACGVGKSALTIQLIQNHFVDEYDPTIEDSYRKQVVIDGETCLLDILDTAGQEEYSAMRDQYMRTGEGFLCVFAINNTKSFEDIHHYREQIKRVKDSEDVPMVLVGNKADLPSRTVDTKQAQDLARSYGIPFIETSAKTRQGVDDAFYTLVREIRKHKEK

Structure (SMILES)	Coupled exchange IC50 (5 min)
C=CC(=O)N1CCN(c2nc(=O)n(CC(F)(F)F)c3nc(-c4c(O)cccc4F)c(Cl)cc23)[C@@H](C)C1 [Example 54-7, 6-chloro-7-(2-fluoro-6-hydroxyphenyl)-4-((2S)-2-methyl-4-(2-propenoyl)-1-piperazinyl)-1-(2,2,2-trifluoroethyl) pyrido [2,3-d]pyrimidin-2(1H)-one]	1.75 | nda μM
C=CC(=O)N1CCN(c2nc(=O)n(-c3nc(C)ccc3C(C)C)c3nc(-c4c(O)cccc4F)c(Cl)cc23)[C@@H](C)C1 [Example 54-14, 6-chloro-7-(2-fluoro-6-hydroxyphenyl)-1-(6-methyl-3-(2-propanyl)-2-pyridinyl)-4-((2S)-2-methyl-4-(2-propenoyl)-1-piperazinyl) pyrido[2,3-d]pyrimidin-2(1H)-one]	12.4 | nda μM
C=CC(=O)N1CCN(c2nc(=O)n(-c3ccccc3CC#N)c3nc(-c4c(O)cccc4F)c(Cl)cc23)[C@@H](C)C1 [Example 54-19, (2-(6-chloro-7-(2-fluoro-6-hydroxyphenyl)-4-((2S)-2-methyl-4-(2-propenoyl)-1-piperazinyl)-2-oxopyrido[2,3-d]pyrimidin-1(2H)-yl)phenyl) acetonitrile]	12.2 | nda μM
C=CC(=O)N1CCN(c2nc(=O)n(-c3nccnc3C(C)C)c3nc(-c4ccccc4F)c(Cl)cc23)[C@@H](C)C1 [Example 54-20]	2.26 | nda μM
C=CC(=O)N1CCN(c2nc(=O)n(-c3ncccc3C3(C#N)CC3)c3nc(-c4ccccc4F)c(Cl)cc23)[C@@H](C)C1 [Example 54-39, 1-(2-(6-chloro-7-(2-fluorophenyl)-4-((2S)-2-methyl-4-(2-propenoyl)-1-piperazinyl)-2-oxopyrido[2,3-d]pyrimidin-1(2H)-yl)-3-pyridinyl) cyclopropane carbonitrile]	32.1 | nda μM
C=CC(=O)N1CCN(c2nc(=O)n(-c3ncccc3C3(C#N)CC3)c3nc(-c4c(O)cccc4F)c(Cl)cc23)[C@@H](C)C1 [Example 54-40, 1-(2-(6-chloro-7-(2-fluoro-6-hydroxyphenyl)-4-((2S)-2-methyl-4-(2-propenoyl)-1-piperazinyl)-2-oxopyrido[2,3-d]pyrimidin-1(2H)-yl)-3-pyridinyl) cyclopropane carbonitrile]	21.3 | nda μM
C=CC(=O)N1CCN(c2nc(=O)n(-c3ccccc3C(C)C)c3nc(-c4c(C)noc4C)c(Cl)cc23)[C@@H](C)C1 [Example 54-44, 6-chloro-7-(3,5-dimethyl-1,2-oxazol-4-yl)-4-((2S)-2-methyl-4-(2-propenoyl)-1-piperazinyl)-1-(2-(2-propanyl)phenyl)pyrido [2,3-d]pyrimidin-2(1H)-one]	3.9 | nda μM
C=CC(=O)N1CCN(c2nc(=O)n(-c3ccccc3C(C)C)c3nc(-c4ccc[nH]4)c(Cl)cc23)[C@@H](C)C1 [Example 54-46, 6-chloro-4-((2S)-2-methyl-4-(2-propenoyl)-1-piperazinyl)-1-(2-(2-propanyl)phenyl)-7-(1H-pyrrol-2-yl)pyrido[2,3-d]pyrimidin-2(1H)-one]	7.24 | nda μM
C=CC(=O)N1CCN(c2nc(=O)n(-c3ccccc3C(C)C)c3nc(-c4ccco4)c(Cl)cc23)[C@@H](C)C1 [Example 54-47, 6-chloro-7-(2-furanyl)-4-((2S)-2-methyl-4-(2-propenoyl)-1-piperazinyl)-1-(2-(2-propanyl)phenyl)pyrido [2,3-d]pyrimidin-2(1H)-one]	10.7 | nda μM
C=CC(=O)N1CCN(c2nc(=O)n(-c3ccccc3OC(F)(F)F)c3nc(-c4c(O)cccc4F)c(Cl)cc23)[C@@H](C)C1 [Example 54-49, 6-chloro-7-(2-fluoro-6-hydroxyphenyl)-4-((2S)-2-methyl-4-(2-propenoyl)-1-piperazinyl)-1-(2-(trifluoromethoxy)phenyl) pyrido[2,3-d]pyrimidin-2(1H)-one]	5.65 | nda μM
C=CC(=O)N1C[C@@H]2C[C@H]1CN2c1nc(=O)n(-c2ccccc2C(C)C)c2nc(-c3c(O)cccc3F)c(Cl)cc12 [Example 54-50, 4-((1S,4S)-5-acryloyl-2,5-diazabicyclo [2.2.1]heptan-2-yl)-6-chloro-7-(2-fluoro-6-hydroxyphenyl)-1-(2-isopropylphenyl) pyrido [2,3-d]pyrimidin-2(1H)-one]	88.8 | nda μM
C=CC(=O)N1CCN(c2nc(=O)n(-c3ccccc3S(C)(=O)=O)c3nc(-c4c(O)cccc4F)c(Cl)cc23)[C@@H](C)C1 [Example 54-56, 6-chloro-7-(2-fluoro-6-hydroxyphenyl)-4-((2S)-2-methyl-4-(2-propenoyl)-1-piperazinyl)-1-(2-(methylsulfonyl)phenyl) pyrido[2,3-d]pyrimidin-2(1H)-one]	1.42 | nda μM
C=CC(=O)N1CCN(c2nc(=O)n(-c3ccccc3S(C)(=O)=O)c3nc(-c4c(O)cccc4F)c(Cl)cc23)[C@@H](C)C1 [Example 54-56-1]	2.49 | nda μM
C=CC(=O)N1CCN(c2nc(=O)n(-c3ccccc3C#N)c3nc(-c4c(O)cccc4F)c(Cl)cc23)[C@@H](C)C1 [Example 54-58, 2-(6-chloro-7-(2-fluoro-6-hydroxyphenyl)-4-((2S)-2-methyl-4-(2-propenoyl)-1-piperazinyl)-2-oxopyrido[2,3-d]pyrimidin-1(2H)-yl)benzonitrile]	3.44 | nda μM
C=CC(=O)N1CCN(c2nc(=O)n(-c3c(OC)cccc3OC)c3nc(-c4ccccc4F)c(Cl)cc23)[C@@H](C)C1 [Example 54-68, 6-chloro-1-(2,6-dimethoxy-phenyl)-7-(2-fluorophenyl)-4-((2S)-2-methyl-4-(2-propenoyl)-1-piperazinyl) pyrido[2,3-d]pyrimidin-2(1H)-one]	4.65 | nda μM
C=CC(=O)N1CCN(c2nc(=O)n(-c3ccccc3C(C)C)c3nc(C4=CCCCC4)c(Cl)cc23)[C@@H](C)C1 [Example 54-75, 6-chloro-7-(1-cyclohexen-1-yl)-4-((2S)-2-methyl-4-(2-propenoyl)-1-piperazinyl)-1-(2-(2-propanyl)phenyl)pyrido [2,3-d]pyrimidin-2(1H)-one]	1.08 | nda μM
C=CC(=O)N1CCN(c2nc(=O)n(-c3ccccc3C(C)C)c3nc(C4=CCCOC4)c(Cl)cc23)[C@@H](C)C1 [Example 54-76, 6-chloro-7-(5,6-dihydro-2H-pyran-3-yl)-4-((2S)-2-methyl-4-(2-propenoyl)-1-piperazinyl)-1-(2-(2-propanyl)phenyl)pyrido [2,3-d]pyrimidin-2(1H)-one]	5.48 | nda μM
C=CC(=O)N1CCN(c2nc(=O)n(-c3ccccc3C(C)C)c3nc(-c4ncccc4F)c(Cl)cc23)[C@@H](C)C1 [Example 54-92, 6-chloro-7-(3-fluoro-2-pyridinyl)-4-((2S)-2-methyl-4-(2-propenoyl)-1-piperazinyl)-1-(2-(2-propanyl)phenyl)pyrido [2,3-d]pyrimidin-2(1H)-one]	1.27 | nda μM
C=CC(=O)N1CCN(c2nc(=O)n(-c3ccccc3C(C)C)c3nc(-c4ncc(F)cc4F)c(Cl)cc23)[C@@H](C)C1 [Example 54-93, 6-chloro-7-(3,5-difluoro-2-pyridinyl)-4-((2S)-2-methyl-4-(2-propenoyl)-1-piperazinyl)-1-(2-(2-propanyl)phenyl)pyrido [2,3-d]pyrimidin-2(1H)-one]	1.43 | nda μM
C=CC(=O)N1CCN(c2nc(=O)n(-c3ccccc3C(C)C)c3nc(-c4ncccc4Cl)c(Cl)cc23)[C@@H](C)C1 [Example 54-94, 6-chloro-7-(3-chloro-2-pyridinyl)-4-((2S)-2-methyl-4-(2-propenoyl)-1-piperazinyl)-1-(2-(2-propanyl)phenyl)pyrido [2,3-d]pyrimidin-2(1H)-one]	1.19 | nda μM
C=CC(=O)N1CCN(c2nc(=O)n(-c3ccccc3C3(C)CC3)c3nc(Cl)c(Cl)cc23)[C@@H](C)C1 [Example 54-98]	5.45 | nda μM
C=CC(=O)N1CCN(c2nc(=O)n(-c3ccccc3N3CCOCC3)c3nc(-c4c(O)cccc4F)c(Cl)cc23)[C@@H](C)C1 [Example 54-100, 6-chloro-7-(2-fluoro-6-hydroxyphenyl)-4-((2S)-2-methyl-4-(2-propenoyl)-1-piperazinyl)-1-(2-(4-morpholinyl)phenyl) pyrido[2,3-d] pyrimidin-2(1H)-one]	2.51 | nda μM
C=CC(=O)N1CCN(c2nc(=O)n(-c3c(CC)n[nH]c3CC)c3nc(-c4ccccc4F)c(Cl)cc23)[C@@H](C)C1 [Example 54-106]	0.51 | nda μM
C=CC(=O)N1CCN(c2nc(=O)n(-c3c[nH]cc3C(C)C)c3nc(-c4ccccc4F)c(Cl)cc23)[C@@H](C)C1 [Example 54-109, 6-chloro-7-(2-fluorophenyl)-4-((2S)-2-methyl-4-(2-propenoyl)-1-piperazinyl)-1-(4-(2-propanyl)-1H-pyrrol-3-yl)pyrido[2,3-d]pyrimidin-2(1H)-one]	0.355 | nda μM
C=CC(=O)N1CCN(c2nc(=O)n(-c3c(C)ccnc3N(C)C)c3nc(-c4ccccc4F)c(Cl)cc23)[C@@H](C)C1 [Example 55-7]	0.806 | nda μM

Same assay, conditions: 2 h compound pre-incubation

Structure (SMILES)	Coupled exchange IC50 (2 h)
C=CC(=O)N1CCN(c2nc(=O)n(-c3c(CC)cccc3CC)c3nc(Oc4cccc(F)c4)c(Cl)cc23)[C@@H](C)C1 [Example 54-64, 6-chloro-1-(2,6-diethylphenyl)-7-(3-fluorophenoxy)-4-((2S)-2-methyl-4-(2-propenoyl)-1-piperazinyl) pyrido[2,3-d]pyrimidin-2(1H)-one]	nda | 7.97 μM
